From patent US20250281498A1, “FUSED AMINO PYRIMIDINE COMPOUNDS FOR TREATMENT OF SYNUCLEINOPATHIES AND TDP-43 PROTEINOPATHIES” (Ovid Therapeutics Inc., priority 2024, published 2025) come the findings set out here.

The target in experiment [1] is T1, KCC2 (Homo sapiens, UniProt Q9H2X9).
T1 construct: expressed in transfected cells; host or cells: HEK-293 (ATCC CRL-1573)
T1 sequence (Q9H2X9 1-1116 isoform Q9H2X9-2): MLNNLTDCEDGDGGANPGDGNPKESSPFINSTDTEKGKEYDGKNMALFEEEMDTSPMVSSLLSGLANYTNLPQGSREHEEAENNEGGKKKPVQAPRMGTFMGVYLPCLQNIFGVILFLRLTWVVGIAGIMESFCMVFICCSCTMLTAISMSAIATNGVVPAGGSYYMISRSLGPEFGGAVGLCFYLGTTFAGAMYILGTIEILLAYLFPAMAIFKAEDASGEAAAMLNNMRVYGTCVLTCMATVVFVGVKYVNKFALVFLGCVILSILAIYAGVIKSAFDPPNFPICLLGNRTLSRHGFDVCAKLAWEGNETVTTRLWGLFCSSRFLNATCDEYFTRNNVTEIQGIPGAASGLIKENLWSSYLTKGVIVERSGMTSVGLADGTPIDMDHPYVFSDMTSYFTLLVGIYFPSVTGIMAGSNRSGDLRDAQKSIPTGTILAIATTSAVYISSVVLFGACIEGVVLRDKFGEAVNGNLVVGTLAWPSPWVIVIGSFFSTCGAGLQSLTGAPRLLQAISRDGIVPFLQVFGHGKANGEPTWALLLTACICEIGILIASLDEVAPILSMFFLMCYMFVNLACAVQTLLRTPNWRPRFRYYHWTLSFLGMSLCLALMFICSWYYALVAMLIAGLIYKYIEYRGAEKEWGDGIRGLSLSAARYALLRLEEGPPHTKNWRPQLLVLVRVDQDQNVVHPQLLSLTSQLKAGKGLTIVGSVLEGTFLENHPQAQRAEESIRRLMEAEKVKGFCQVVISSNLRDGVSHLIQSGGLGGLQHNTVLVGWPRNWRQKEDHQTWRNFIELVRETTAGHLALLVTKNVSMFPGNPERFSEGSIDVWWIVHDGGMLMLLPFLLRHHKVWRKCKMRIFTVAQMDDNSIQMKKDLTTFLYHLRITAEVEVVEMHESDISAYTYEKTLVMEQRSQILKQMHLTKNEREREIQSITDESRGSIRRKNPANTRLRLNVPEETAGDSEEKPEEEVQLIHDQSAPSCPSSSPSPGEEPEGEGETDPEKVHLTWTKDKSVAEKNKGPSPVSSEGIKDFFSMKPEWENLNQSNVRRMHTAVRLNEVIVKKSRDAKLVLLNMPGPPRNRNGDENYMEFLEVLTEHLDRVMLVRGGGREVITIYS
The experiment can be described thus: cellular thermal shift assay (CETSA) in HEK-293 cells expressing KCC2. The experiment is classed as binding. The method, then:
(§1) Cell Culture and biotinylation. HEK-293 cells were purchased from ATCC (CRL-1573) and transfected with human KCC2 and GFP expression plasmids using Lipofectamine 2000. Cells were utilized for experimentation 48-72 h following transfection. Cells were biotinylated at 4° C. using NHS-Biotin. Following lysis and purification on immobilized avidin beads, cell surface and total fractions were subject to immunoblotting as outlined previously (Conway et al., 2017, supra).
Determining if compounds in SSA directly interact with KCC2. This was tested using a cellular thermal shift assay (CETSA), which measures the ability of a drug to modify the thermal stability of its target in whole cells (Kawatkar et al., ACS Chem. Biol. 14, 1913-1920 (2019); Martinez et al., Sci Rep 8, 9472 (2018)).
2×10^6 transfected HEK-293 cells were incubated with 30 μM drug or vehicle for 90 min at 37° C. and then heated from 37-58° C. for 5 min. Cells were rapidly chilled to 25° C. and NP40 was added to a final concentration […] to snap freezing in liquid nitrogen. […]
Aliquots of HEK-293 cells expressing KCC2 were exposed to 30 μM SSA, heated from 37-55° C. The remaining level of soluble native KCC2 at each temperature was measured by immunoblotting and normalized to the level seen at 37° C. which was given a value of 1. […]

Experiment [2] addresses T1, KCC2. The experiment is described as follows: biotinylation, plasma membrane level of KCC2 in HEK-293 cells. The experiment is classed as cell-based. Particulars: 15 min. As to the method: as §1
The reliability of the biotinylation procedure was assessed via immunoblotting with antibodies against the cytosolic protein actin. Actin was present in the total lysates but was absent from the surface fractions (FIG. 2C).

The subject of experiment [3] is neuronal cell death in the hippocampus. The experiment can be described thus: neuronal cell death in the hippocampus of mice treated with Compound A and diazepam. Type of experiment: in vivo. Particulars: Compound A and diazepam vs diazepam alone.

Regarding `C[C@@H]1CN(c2nc3c(c(Nc4ccc(C5CCCCC5)cc4)n2)COC3)CCO1` [Compound A, (R)—N-(4-cyclohexylphenyl)-2-(2-methylmorpholino)-5,7-dihydrofuro[3,4-d]pyrimidin-4-amine], the “direct binding to KCC2 as measured using CETSA” value on KCC2 [1] is “capable of directly binding to KCC2”. Further, the figures for the “level of KCC2 on the plasma membrane (surface/total)” value on KCC2 [2] (0.3 μM) and on KCC2 [2] (3 μM) were 94.5±8.4 % of control and 104.7±8.4 % of control, respectively. The “neuronal cell death in the hippocampus” value in experiment [3] is given as “significantly reduced”.
